Laboratory results published in patent US20160235727A1, “NOVEL PYRROLIDINE DERIVED BETA 3 ADRENERGIC RECEPTOR AGONISTS” (Merck Sharp & Dohme Corp., priority 2013, published 2016).

Molecular target: T1, human β3-AR (Homo sapiens, UniProt P13945)
T1 construct: expressed in transfected cells; host or cells: CHO (Chinese hamster ovary) cells, stably transfected
Test: cAMP functional agonist assay (LANCE TR-FRET) in CHO cells expressing cloned human β3-AR
Format: cell-based
Settings: for EC50: CHO cells stably expressing cloned human β3-adrenoceptor, cAMP release, read-out: Human β3-AR Agonism EC50; for Fold drop in potency vs. 2-chloropyridine analog: EC50 of comparative example divided by EC50 of corresponding 2-chloropyridine compound; for Human β3-AR Agonist Activity (%): percent maximum activation relative to isoproterenol

T1 sequence (P13945 whole entry): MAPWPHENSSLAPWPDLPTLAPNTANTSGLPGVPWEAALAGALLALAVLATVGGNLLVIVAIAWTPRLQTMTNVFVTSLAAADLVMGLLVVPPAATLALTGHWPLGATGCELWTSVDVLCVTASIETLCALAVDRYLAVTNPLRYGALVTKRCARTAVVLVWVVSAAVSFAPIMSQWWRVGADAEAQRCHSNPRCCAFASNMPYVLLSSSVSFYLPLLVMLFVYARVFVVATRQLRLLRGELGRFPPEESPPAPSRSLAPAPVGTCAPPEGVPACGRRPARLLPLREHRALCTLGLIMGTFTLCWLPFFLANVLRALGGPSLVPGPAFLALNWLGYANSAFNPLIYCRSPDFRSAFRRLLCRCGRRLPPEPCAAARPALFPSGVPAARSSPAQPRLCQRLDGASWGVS

SMILES | EC50 | Fold drop in potency vs. 2-chloropyridine analog | Human β3-AR Agonist Activity (%)
CC(C)[C@H](c1nn(C)c(=O)o1)N(C)C(=O)c1ccc(C[C@@H]2CC[C@H]([C@H](O)c3ccccc3)N2)cc1 [Example 19-B, 4-(((2S,5R)-5-((R)-hydroxy(phenyl)methyl)pyrrolidin-2-yl)methyl)-N-methyl-N—((R)-2-methyl-1-(4-methyl-5-oxo-4,5-dihydro-1,3,4-oxadiazol-2-yl)propyl)benzamide] | 32 nM | 5.8 fold | 115%
CN(Cc1cccc(=O)[nH]1)C(=O)c1ccc(C[C@@H]2CC[C@H]([C@H](O)c3ccc(Cl)nc3)N2)cc1 [Example 20-A, 4-(((2S,5R)-5-((R)-(6-chloropyridin-3-yl)(hydroxy)methyl)pyrrolidin-2-yl)methyl)-N-methyl-N-((6-oxo-1,6-dihydropyridin-2-yl)methyl)benzamide] | 5 nM | – | 108%
CN(Cc1cccc(=O)[nH]1)C(=O)c1ccc(C[C@@H]2CC[C@H]([C@H](O)c3ccccc3)N2)cc1 [Example 20-B, 4-(((2S,5R)-5-((R)-hydroxy(phenyl)methyl)pyrrolidin-2-yl)methyl)-N-methyl-N-((6-oxo-1,6-dihydropyridin-2-yl)methyl)benzamide] | 9 nM | 2.1 fold | 103%
CN(Cc1cccc(=O)[nH]1)C(=O)c1ccc(C[C@@H]2CC[C@H]([C@H](O)c3ccc(OC(F)F)cc3)N2)cc1 [Example 20-E, 4-(((2S,5R)-5-((R)-(4-(difluoromethoxy)phenyl)(hydroxy)methyl)pyrrolidin-2-yl)methyl)-N-methyl-N-((6-oxo-1,6-dihydropyridin-2-yl)methyl)benzamide] | 86 nM | 18.9 fold | 72%
CN(Cc1cccc(=O)[nH]1)C(=O)c1ccc(C[C@@H]2CC[C@H]([C@H](O)c3ccc(Cl)cc3)N2)cc1 [Example 20-G] | 6 nM | 4.5 fold | 99%
CN(Cc1cccnc1)C(=O)c1ccc(C[C@@H]2CC[C@H]([C@H](O)c3ccc(Cl)nc3)N2)cc1 [Example 21-A, 4-(((2S,5R)-5-((R)-(6-chloropyridin-3-yl)(hydroxy)methyl)pyrrolidin-2-yl)methyl)-N-methyl-N-(pyridin-3-ylmethyl)benzamide] | 4 nM | – | 102%
CN(Cc1cccnc1)C(=O)c1ccc(C[C@@H]2CC[C@H]([C@H](O)c3ccccc3)N2)cc1 [Example 21-B, 4-(((2S,5R)-5-((R)-hydroxy(phenyl)methyl)pyrrolidin-2-yl)methyl)-N-methyl-N-(pyridin-3-ylmethyl)benzamide] | 41 nM | 9.7 fold | 86%
CN(Cc1cccnc1)C(=O)c1ccc(C[C@@H]2CC[C@H]([C@H](O)c3cccc(F)c3)N2)cc1 [Example 21-C, 4-(((2S,5R)-5-((R)-(3-fluorophenyl)(hydroxy)methyl)pyrrolidin-2-yl)methyl)-N-methyl-N-(pyridin-3-ylmethyl)benzamide] | 10 nM | 2.3 fold | 100%
CN(Cc1cccnc1)C(=O)c1ccc(C[C@@H]2CC[C@H]([C@H](O)c3cccc(Cl)c3)N2)cc1 [Example 21-D, 4-(((2S,5R)-5-((R)-(3-chlorophenyl)(hydroxy)methyl)pyrrolidin-2-yl)methyl)-N-methyl-N-(pyridin-3-ylmethyl)benzamide] | 120 nM | 28.2 fold | 97%
CN(Cc1cccnc1)C(=O)c1ccc(C[C@@H]2CC[C@H]([C@H](O)c3ccc(F)cc3)N2)cc1 [Example 21-F, 4-(((2S,5R)-5-((R)-(4-fluorophenyl)(hydroxy)methyl)pyrrolidin-2-yl)methyl)-N-methyl-N-(pyridin-3-ylmethyl)benzamide] | 12 nM | 2.9 fold | 94%
CN(Cc1cccnc1)C(=O)c1ccc(C[C@@H]2CC[C@H]([C@H](O)c3ccc(Cl)cc3)N2)cc1 [Example 21-G, 4-(((2S,5R)-5-((R)-(4-chlorophenyl)(hydroxy)methyl)pyrrolidin-2-yl)methyl)-N-methyl-N-(pyridin-3-ylmethyl)benzamide] | 6 nM | 1.3 fold | 88%
CN(Cc1cccnc1)C(=O)c1ccc(C[C@@H]2CC[C@H]([C@H](O)c3cccnc3)N2)cc1 [Example 21-H, 4-(((2S,5R)-5-((R)-hydroxy(pyridin-3-yl)methyl)pyrrolidin-2-yl)methyl)-N-methyl-N-(pyridin-3-ylmethyl)benzamide] | 38 nM | 8.8 fold | 85%
CN(Cc1cccnc1)C(=O)c1ccc(C[C@@H]2CC[C@H]([C@H](O)c3ccc(C4CC4)nc3)N2)cc1 [Example 21-I, 4-(((2S,5R)-5-((R)-(6-cyclopropylpyridin-3-yl)(hydroxy)methyl)pyrrolidin-2-yl)methyl)-N-methyl-N-(pyridin-3-ylmethyl)benzamide] | 19 nM | 4.4 fold | 71%
CC(=O)c1ccc([C@@H](O)[C@H]2CC[C@@H](Cc3ccc(C(=O)N(C)Cc4cccnc4)cc3)N2)cn1 [Example 21-J, 4-(((2S,5R)-5-((R)-(6-acetylpyridin-3-yl)(hydroxy)methyl)pyrrolidin-2-yl)methyl)-N-methyl-N-(pyridin-3-ylmethyl)benzamide] | ≥ 10000 nM | >2300 fold | 38%
CN(Cc1cccnc1)C(=O)c1ccc(C[C@@H]2CC[C@H]([C@H](O)c3ccc(C(N)=O)nc3)N2)cc1 [Example 21-K, 5-((R)-hydroxy((2R,5S)-5-(4-(methyl(pyridin-3-ylmethyl)carbamoyl)benzyl)pyrrolidin-2-yl)methyl)picolinamide] | 112 nM | 26.3 fold | 87%
Cc1nc(-c2ccc([C@@H](O)[C@H]3CC[C@@H](Cc4ccc(C(=O)N(C)Cc5cccnc5)cc4)N3)cn2)no1 [Example 21-L, 4-(((2S,5R)-5-((R)-hydroxy(6-(5-methyl-1,2,4-oxadiazol-3-yl)pyridin-3-yl)methyl)pyrrolidin-2-yl)methyl)-N-methyl-N-(pyridin-3-ylmethyl)benzamide] | ≥ 10000 nM | >2300 fold | 3%
CN(Cc1cccnc1)C(=O)c1ccc(C[C@@H]2CC[C@H]([C@H](O)c3ccc(N)nc3)N2)cc1 [Example 21-M, 4-(((2S,5R)-5-((R)-(6-aminopyridin-3-yl)(hydroxy)methyl)pyrrolidin-2-yl)methyl)-N-methyl-N-(pyridin-3-ylmethyl)benzamide] | 20 nM | 4.7 fold | 97%
CN(Cc1cccnc1)C(=O)c1ccc(C[C@@H]2CC[C@H]([C@H](O)c3ccc(NC4CC4)nc3)N2)cc1 [Example 21-N, 4-(((2S,5R)-5-((R)-(6-(cyclopropylamino)pyridin-3-yl)(hydroxy)methyl)pyrrolidin-2-yl)methyl)-N-methyl-N-(pyridin-3-ylmethyl)benzamide] | ≥ 10000 nM | >2300 fold | 27%
CN(Cc1cccnc1)C(=O)c1ccc(C[C@@H]2CC[C@H]([C@H](O)c3ccc(C#N)nc3)N2)cc1 [Example 21-O, 4-(((2S,5R)-5-((R)-(6-cyanopyridin-3-yl)(hydroxy)methyl)pyrrolidin-2-yl)methyl)-N-methyl-N-(pyridin-3-ylmethyl)benzamide] | 274 nM | 64.3 fold | 77%
COc1ccc([C@@H](O)[C@H]2CC[C@@H](Cc3ccc(C(=O)N(C)Cc4cccnc4)cc3)N2)cn1 [Example 21-P, 4-(((2S,5R)-5-((R)-hydroxy(6-methoxypyridin-3-yl)methyl)pyrrolidin-2-yl)methyl)-N-methyl-N-(pyridin-3-ylmethyl)benzamide] | 24 nM | 5.7 fold | 93%
CN(Cc1cccnc1)C(=O)c1ccc(C[C@@H]2CC[C@H]([C@H](O)c3cncc(F)c3)N2)cc1 [Example 21-R, 4-(((2S,5R)-5-((R)-(5-fluoropyridin-3-yl)(hydroxy)methyl)pyrrolidin-2-yl)methyl)-N-methyl-N-(pyridin-3-ylmethyl)benzamide] | 57 nM | 13.3 fold | 91%
Cc1cc([C@@H](O)[C@H]2CC[C@@H](Cc3ccc(C(=O)N(C)Cc4cccnc4)cc3)N2)cnc1Cl [Example 21-S, 4-(((2S,5R)-5-((R)-(6-chloro-5-methylpyridin-3-yl)(hydroxy)methyl)pyrrolidin-2yl)methyl)-N-methyl-N-(pyridin-3-ylmethyl)benzamide] | 307 nM | 72.1 fold | 84%
CCN(Cc1cccnc1)C(=O)c1ccc(C[C@@H]2CC[C@H]([C@H](O)c3ccc(Cl)nc3)N2)cc1 [Example 22-A, 4-(((2S,5R)-5-((R)-(6-chloropyridin-3-yl)(hydroxy)methyl)pyrrolidin-2-yl)methyl)-N-ethyl-N-(pyridin-3-ylmethyl)benzamide] | 5 nM | – | 62%
CCN(Cc1cccnc1)C(=O)c1ccc(C[C@@H]2CC[C@H]([C@H](O)c3ccccc3)N2)cc1 [Example 22-B, N-ethyl-4-(((2S,5R)-5-((R)-hydroxy(phenyl)methyl)pyrrolidin-2-yl)methyl)-N-(pyridin-3-ylmethyl)benzamide] | 10 nM | 2.0 fold | 103%
